Laboratory results taken from patent publication US20250002488A1, “Glioblastoma Multiforme Treatments” (Brown University, priority 2021, published 2025).

What was measured:
GSCs [1] = assay: two-week limiting dilution assay (LDA), self-renewal / neuro-sphere formation; format: cell-based
Excerpt: A graph using an online algorism to score and assess the self-renew ability of GSCs treated with DMSO and HDAC class IIa inhibitor respectively (FIGS. 6B and 6D).
To validate whether HDAC-7 inhibition would present a phenotype change in primary GSCs, its effect on modifying the self-renewal of GSCs was examined, and since there is no small molecule drug currently available as a selective HDAC-7 inhibitor, the class IIa HDAC inhibitor, TMP269, that inhibits HDAC-4,5,7,9, was used. The two-week limiting dilution assay “LDA” that tests the frequency of self-renewing cells within a population was applied. […] Moreover, the same significant result was observed when testing GSCs from different genotypes (FIGS. 6A-6D).

GSCs [2] = assay: cell viability assay by MTS; format: cell-based; details: increasing doses, 72 hrs
Experimental: Dose response curve for GSCs treated with Pan HDAC inhibitors TSA (Trichostatin A), SAHA (Vorinostat) versus the HDAC class IIa inhibitor (TMP269). Cell viability assay was determined by MTS after the treatment with increasing doses of each corresponding drug at time point 72 hrs with P-value <0.0001.
HDAC-7 has been crystalized, and like other members of class I, II, and IV, HDAC-7 binds to the substrates through a zinc mediated charge relay system. Class IIa HDAC has another specific zinc-binding motif adjacent to the active site, which directs the recognition and protein-protein interaction. However, there is remarkable structural diversity in HDAC-7 found in loop regions around the active site entrance that poses a challenge to generation of inhibitors.

| Structure (SMILES) | neuro-sphere formation of GSCs (GSCs [1]; 2-week limiting dilution assay, versus DMSO control) | self-renewal of GSCs (ability to form neuro-spheres, algorithmic scoring) (GSCs [1]; two-week LDA, versus DMSO-treated control cells, GSCs from different genotypes) | GSC cell viability (GSCs [2]) |
| --- | --- | --- | --- |
| O=C(NCC1(c2nc(-c3ccccc3)cs2)CCOCC1)c1cccc(-c2noc(C(F)(F)F)n2)c1 [TMP269] | unable to form neuro-spheres | significant decrease | decreases the GSCs' viability |
| O=C(CCCCCCC(=O)Nc1ccccc1)NO [Vorinostat] | – | – | inhibitory trend |
